Results on 67 molecules are retold here after the OPERA property sets (Mansouri et al. 2018).

Converted amounts (≈) assume the structure as drawn. Where a SMILES comes first, the peptide text is derived from it.

`O=[N+]([O-])c1cc(Cl)cc(Cl)c1` showed a logP of 3.09. `Cc1ccc(C=[N+]([O-])C(C)(C)C)cc1` registered a logP of 1.74. For `CC1CCC(=O)N1` (stereo not drawn), the logP is -0.1. In turn, `COc1ccccc1OCC(O)CO` (stereo not drawn) yielded a logP of 1.39. The same measure, in the same setting: for `C=CC(=O)OCCOC` the value was 0.56. As for `CC(=O)N[C@@H](C)C(=O)N[C@H](C(N)=O)C(C)C` (Ac-Ala-Val-NH2), the logP is -1.13.

`COC(=O)C(C)Oc1ccc(Oc2ccc(Cl)cc2Cl)cc1` (stereo not drawn) gave a logP of 4.62. `NC(=O)c1ccc(N)nc1` returned a logP of 0.7.

Take `Nc1nc(=O)n([C@H]2CC[C@@H](CO)O2)cc1Br`: the logP is -0.5. For the molecule `CC(C)(C)c1ccc2oc(N(N)CCC#N)nc2c1`, the logP was 2.82. Same read-out and setting: next, `N#CCCOc1cccc2ccccc12`: 2.8. Same read-out and setting: next, `COc1ccc(-c2cc(C#N)c(Cl)nc2C)cc1OC`: 2.86. Same read-out and setting: for `Cc1cccc2[nH]ccc12` the value was 2.54; for `N#CCCC#N`, -0.99.

Molecule `CC(C)c1ccc(C=[N+]([O-])c2ccccc2)cc1` registered a logP of 3.37.

`CC(=O)Nc1ccc(C(=O)O)c(O)c1` registered a logP of 1.62. On the same count and under the same terms, next, `Cc1c(Cl)cc(C(C)C)c(Cl)c1Cl`: 6.2; `CCOCCOCCO`: -0.54.

Take `CC(Oc1ccc(Oc2ccc(C(F)(F)F)cn2)cc1)C(=O)O` (stereo not drawn): the logP was found to be 3.18. The same measure, in the same setting: next, `COc1c(Cl)c(Cl)cc(Cl)c1Cl`: 4.68; `Nc1c(Cl)c(Cl)c(N)c2c1C(=O)c1ccccc1C2=O`: 4.56. On the same count and under the same terms, next, `CC(C)(C)C1CCC(O)CC1` (stereo not drawn): 3.23.

Consider `N=C(N)NN=C1C=CC(=NNC(N)=S)C=C1`, for which the logP turned out to be 1.23. For the molecule `CC1=CCC2CC1C2(C)C` (stereo not drawn), the logP amounted to 4.83. The same measure, in the same setting: for `Nc1cc(Cl)c(S(N)(=O)=O)cc1S(N)(=O)=O` the value was -0.41. Same read-out and setting: next, `CNC(=O)CCc1ccccc1`: 1.17. Take `N#CCCN(N)c1nc2cc(Cl)ccc2o1`: the logP was found to be 1.72.

For the molecule `CCOC(=O)n1c(-c2cscn2)nc2ccccc21`, the logP was 2.51. The same measure, in the same setting: next, `COP(=S)(OC)Oc1c(Cl)cccc1C#N`: 3.58. On the same count and under the same terms, next, `CCCOC(=O)NCCCN(C)C`: 1.12; `CC(C)COCC(C)C`: 2.78. Still for that read-out and setting: for `O=[N+]([O-])c1c(Cl)cc(Cl)cc1Cl` the value was 3.69; for `Clc1cccc2ccccc12`, 4.

With `CCOC1OC2OC3(C)CC(O)C4C(C)CCC(C1C)C24OO3` (stereo not drawn), the logP stood at 2.7.

In the case of `CCOC(=O)CCn1nc2ccccc2n1`, the logP turned out to be 2.12. Still for that read-out and setting: for `NC(=S)NN=Cc1ccco1` the value was 1.64; for `c1ccc2c(c1)cc1ccc3cccc4ccc2c1c34`, 6.13.

With `CCN1CCC(CNC(=O)c2cc(S(N)(=O)=O)c(N)cc2OC)C1` (stereo not drawn), the log partition coefficient (logP) was 0.66. In the case of `COc1cc(OC)ncn1`, the logP is 0.96. Still for that read-out and setting: next, `COC(=O)C(C)=CC1C(C(=O)OC)C1(C)C` (stereo not drawn): 2.67; `NS(=O)(=O)c1nc2ccc(OCc3ccccc3)cc2s1`: 3.18.

In the case of `Brc1cc(Br)c(Oc2c(Br)c(Br)c(Br)c(Br)c2Br)cc1Br`, the logP worked out at 8.71. Regarding `CCCCCCCCC1(CC)C(=O)NC(=O)NC1=O`, the logP was determined as 3.78.

With `Cc1ccc(S(=O)(=O)O)cc1`, the solubility is 3600 mM (≈ 620000 µg/mL).

For the molecule `CNC(=O)NCCn1nc(-c2ccccc2)ccc1=O`, the logP is 0.39. The molecule `Clc1cc2c(Cl)c(Cl)c(Cl)c(Cl)c2cc1Cl` showed a logP of 7.7.

In turn, `CCCOC(=O)c1cc(=O)[nH]c(=O)[nH]1` returned a logP of 1.1. As for `C=CC(N)CCC(=O)O` (stereo not drawn), the log partition coefficient (logP) was -2.16. `N#CCCCCCCC#N` yielded a logP of 0.59. Still for that read-out and setting: for `CC(C)(C)C(O)C(Oc1ccc(Cl)cc1)n1cncn1` (stereo not drawn) the value was 2.9; for `CC(=O)O[C@@H]1C[C@H]2CC[C@]1(C)C2(C)C`, 4.3. As to `Clc1ccc(Cn2cncn2)cc1Cl`, the logP is 2.54.

For `Nc1ccc([N+](=O)[O-])cn1`, the logP was 0.65.

Consider `N[C@@H](Cc1ccc(O)c(O)c1)C(=O)OCCc1ccccc1`, for which the logP was 1.76. In turn, `CC1CCCCC1O` (stereo not drawn) displayed a logP of 1.82. For the molecule `ClC1=C(Cl)C2(Cl)C3C(Cl)C(Cl)CC3C1(Cl)C2(Cl)Cl` (stereo not drawn), the logP worked out at 6.16. With `OCC1CO1` (stereo not drawn), the logP was -0.95. The same measure, in the same setting: next, `CCCCCCCCNC(=O)n1cc(F)c(=O)[nH]c1=O`: 3.9. Same read-out and setting: next, `CNS(=O)(=O)c1ccc(Cl)cc1`: 1.92. Still for that read-out and setting: for `Nc1ccc(Cl)c(N)c1` the value was 0.85; for `CCN(CC)CCNC(=O)c1ccc(N)c(Cl)c1`, 1.7. The molecule `CC(C)Oc1c(Br)c(Br)n(C)c1C(=O)Nc1nn[nH]n1` returned a logP of 2.52. In turn, `CC(C)C1(C)N=C(c2ncccc2C(=O)O)NC1=O` (stereo not drawn) came in with a logP of 0.22. Molecule `CCCCCCCCCCCCOC(=O)c1ccc(N)cc1` displayed a solubility of 1.58e-05 mM (≈ 0.00484 µg/mL). Turning to `Oc1ccc(Cl)cc1Cc1ccccc1`, the logP was determined as 3.6 and the solubility stood at 0.681 mM (≈ 149 µg/mL). On to `ClCC1(CCl)C2CC(Cl)(Cl)C1(C(Cl)Cl)CC2(Cl)Cl` (stereo not drawn), for which the logP was determined as 5.79. Still for that read-out and setting: next, `NC(Cc1ccc(O)c(O)c1)C(=O)OCCc1ccc(Cl)cc1` (stereo not drawn): 2.33.
